Literature values, collected in US9173863B2, “Antiviral compound and COX-2 inhibitor combination therapy for functional somatic syndromes, including combination of famciclovir and celecoxib” (INNOVATIVE MED CONCEPTS, LLC, priority 2012, dated 2015).

Test system: fibromyalgia patients
Conditions: valacyclovir alone

CC(C)[C@H](N)C(=O)OCCOCn1cnc2c(=O)[nH]c(N)nc21 [valacyclovir]
Treatment outcome in fibromyalgia patients: not successful
